Tests used:
[1] = system: Il6, Tnf, Il1b and Ccl2 expression in DRG and spinal cord; assay: mRNA levels of cytokines in spinal cord and DRG (quantitative RT-PCR), sub-chronic cisplatin model; type: in vivo, mice; conditions: 8 days after start of cisplatin treatment, vs. cisplatin
Method: (§1) Animal experiments were adapted from 63-64. Animal procedures were performed in 8 to 10 weeks old male C57B16/J mice (Janvier Labs except for pain experiments, Jackson lab). Mice were fed a laboratory standard diet with water and food ad libitum and were kept under constant environmental conditions with a 12-hour light-dark cycle. Istradefylline (KW-6002; Tocris) was dissolved in a carrier solution consisting in 15% DMSO, 15% cremophor (Sigma), 70% saline solution (vehicle). Cisplatin (Accord Healthcare) was dissolved in saline solution. Neuropathy resulting from of sub-chronic cisplatin was evaluated following six daily i.p. injections of cisplatin (3 mg/kg) starting at day 0 and mice were sacrificed 72h after the last injection of cisplatin (day 8). KW-6002 was administered daily i.p. from day −5 to day 7 (FIG. 2).
Lumbar dorsal root ganglion (DRG) and spinal cord tissues were quickly dissected and snap-frozen in liquid nitrogen.
For DRG and spinal cord tissues, total RNA was extracted with phenol/chloroform and subsequently precipitated in isopropanol as described previously (71).
(§2) Reverse transcription was performed on 1 μg of RNA using high-capacity cDNA reverse transcription kit (Thermo Fisher), according the manufacturer's recommendation. Real time PCR was performed on a StepOne device using Taqman Gene Expression Master Mix (Thermo Fisher), following manufacturer's recommendations. Expression levels of the following genes were evaluated using comparative CT method (2-deltaCT): Tumor Necrosis Factor alpha (Tnfa, Assay ID Mm00443258_m1), Interleukin-6 (Il6, Assay ID Mm00446190_m1), Il1b (assay ID Mm00434228_m1); chemokine (C-C motif) ligand 2 (Ccl2, assay ID Mm00441242_m1). Transcript levels of PPIA (Mm02342430_m1) were used as endogenous control.

C57B16/J mice [2] = assay: Mechanical pain sensitivity (von Frey filaments) in sub-chronic cisplatin model; type: in vivo; conditions: KW-6002 3 mg/kg i.p. daily day -5 to day 7; cisplatin 3 mg/kg i.p. for 6 days; vs. cisplatin; FIG. 1A
Method: as §1
(§3) Mechanical pain sensitivity, a classical read out for CIPN in rodents, was assessed using von Frey filaments as previously described (65-66). Briefly, mice were placed in opaque boxes (10×10×10 cm). After a 30 min habituation period, von Frey filaments were applied, and the paw withdrawal threshold was calculated using the “up & down” method. Behavioral testing was performed by experimenter blinded to treatment and genotype.

mEERL cells = assay: Tumor size in mEERL syngeneic in vivo tumor model; conditions: mEERL tumor-bearing mice; cisplatin plus KW6002 vs. cisplatin; FIG. 3E
Method: (§4) We used a validated murine model of HPV+ oropharyngeal squamous cell carcinoma as previously described (noncommercial) (80). This model consists of oropharyngeal epithelial cells from C57Bl/6 male mice that stably express the HPV16 viral oncogenes E6 and E7, H-Ras, and luciferase (mEERL cells). mEERL cells were grown in a T75 flask until confluent, after which cells were trypsinized and harvested, washed 3 times with sterile PBS, and resuspended in 1 mL sterile PBS to the appropriate concentration. Mice were injected s.c. into the right flank with 20 μL solution containing either 1,000,000 mEERL cells or PBS (vehicle). The day of mEERL cell injection is indicated as day −14. Tumor volume was monitored using Vernier digital calipers. When the tumor volume reached 100 mm3, the mice were randomly ascribed to 1 of the 3 experimental groups (vehicle; cisplatin; or cisplatin plus KW6002).

[3] = system: KIM-1, Tnf and Il6 expression; assay: Cisplatin-induced nephrotoxicity markers (mRNA) in mEERL tumor-bearing mice; type: in vivo; conditions: cisplatin plus KW6002 vs. cisplatin
Method: as §4, §2

C57B16/J mice [4] = assay: Mechanical sensitivity (von Frey hairs) in mEERL tumor-bearing mice; type: in vivo; conditions: cisplatin plus KW6002 vs. cisplatin, FIG. 3D
Method: as §4, §3

For `CCn1c(=O)c2c(nc(/C=C/c3ccc(OC)c(OC)c3)n2C)n(CC)c1=O` [KW-6002, 8-[(E)-2-(3,4-dimethoxyphenyl)vinyl]-1,3-diethyl-7-methyl-3,7-dihydro-1H-purine-2,6-dione], which “Tnf mRNA level in spinal cord” value ([1]; KW-6002 3 mg/kg, FIG. 1C) is on record?
Its value is “significantly downregulated”.

What about the “Il6 mRNA level in DRG” value ([1]; KW-6002 3 mg/kg, FIG. 1D) of the same compound?
Its value is “significantly downregulated”.

And the “Tnf mRNA level in DRG” value ([1]; KW-6002 3 mg/kg, FIG. 1E)?
The value was “significantly downregulated”.

What about the “Il 1b mRNA level in DRG” value ([1]; FIG. 1F) of the same compound?
Its value is “significantly reversed the upregulation”.

And the “Ccl2 mRNA level in DRG” value ([1]; FIG. 1G)?
The value was “significantly reversed the upregulation”.

And the “cisplatin-induced pain hypersensitivity (mechanical sensitivity, von Frey)” value (C57B16/J mice [2])?
The value was “significantly mitigated pain hypersensitivity”.

What about the “tumor control by cisplatin (absolute tumor size)” value (mEERL cells) of the same compound?
The value was “significantly potentiated”.

And the “indicator of renal toxicity KIM-1 (mRNA) induced by cisplatin” value ([3]; FIG. 3A)?
The value was “limited”.

What about the “expression of inflammatory cytokine Tnf induced by cisplatin” value ([3]; FIG. 3B) of the same compound?
The value was “limited”.

What about the “expression of inflammatory cytokine Il6 induced by cisplatin” value ([3]; FIG. 3C) of the same compound?
Its value is “limited”.

And the “cisplatin-induced pain hypersensitivity (von Frey)” value (C57B16/J mice [4])?
Its value is “alleviated”.
